Test results from PubChem BioAssay AID1996.
Converted amounts (≈) assume the structure as drawn.

Conditions: buffer; pH 7.4; 200.0 µM

`Cc1cc(NC(=O)CN2CCC(C)CC2)no1.O=C(O)C(=O)O` and `CC1CC(C)CN(C(=O)COC(=O)c2ccc3c(c2)OCCO3)C1` (stereo not given) cannot be ordered by solubility kinetic: over 0.0491 mg/mL for the first, 0.0495 mg/mL (≈ 148 µM) for the second.

Going from `NS(=O)(=O)c1ccc(CCNC(=O)c2ccc(Cl)nc2)cc1` to `CC(=O)Oc1ccc(C(=O)NCCc2ccccc2)cc1`, the solubility kinetic falls from over 0.051 mg/mL to 0.0215 mg/mL (≈ 75.9 µM).

`CC(=O)Nc1c(O)c2cccc3c2n(c1=O)CCC3` and `COc1ccc2c(c1OC)C(=O)N(c1cccc(NC(C)=O)c1)C2` are within 1.5-fold of each other in solubility kinetic: 0.0365 mg/mL (≈ 141 µM) for the first, 0.0466 mg/mL (≈ 143 µM) for the second.

`O=C(Nc1cccnc1)OC1CCCCC1` and `C#CC1CCCCC1NC(=O)Nc1cnccc1C(F)(F)F` (stereo not given) cannot be ordered by solubility kinetic: over 0.033 mg/mL for the first, 0.0432 mg/mL (≈ 139 µM) for the second.

Compared with `COc1ccc(-c2nc(NC(C)=O)sc2-c2ccccc2)cc1`, `O=[N+]([O-])c1cccc2nc(-c3ccccc3)c(-c3ccccc3)nc12` is lower in solubility kinetic: 0.004 mg/mL (≈ 12.3 µM) for the first, under 0.0002 mg/mL for the second.

Going from `OCC1CCCCN1C(=S)Nc1ccc(Cl)cc1Cl` (stereo not given) to `Nc1cc(Cl)ccc1C(=O)OCC(=O)N1CCCC1`, the solubility kinetic falls from over 0.0479 mg/mL to 0.0214 mg/mL (≈ 75.7 µM).

`CCOCCn1c(N2CCCC2)nc2c1c(=O)[nH]c(=O)n2C` and `CN1CCN(c2nc3c(c(=O)[nH]2)CCC3)CC1` cannot be ordered by solubility kinetic: 0.0452 mg/mL (≈ 147 µM) for the first, over 0.0351 mg/mL for the second.

First: Nc1cccc(-c2cn3cccnc3n2)c1
Second: Clc1ccc2nc(-c3ccc4c(c3)OCO4)cn2c1
The solubility kinetic of the first is higher: 0.0259 mg/mL (≈ 123 µM) for the first, under 0.0003 mg/mL for the second.

Compared with `O=C(O)c1ccccc1Nc1cc(Cl)c2nonc2c1[N+](=O)[O-]`, `Cc1cccc(NC(=O)COC(=O)C2COc3ccccc3O2)c1C` (stereo not given) is higher in solubility kinetic: 0.0433 mg/mL (≈ 129 µM) for the first, over 0.0512 mg/mL for the second.

`COc1cc(OC)c(C(=O)OCC(=O)NC2CCCC2)cc1OC` and `COc1ccc(S(=O)(=O)NC2CCCC2)c(OC)c1` cannot be ordered by solubility kinetic: over 0.0506 mg/mL for the first, over 0.0428 mg/mL for the second.

Going from `CC(=O)c1cn(Cc2ccccc2F)c2ccccc12` to `Cc1cc(C(=O)Nc2ccccc2)c2ccccc2n1`, the solubility kinetic rises from under 0.0006 mg/mL to 0.003 mg/mL (≈ 11.4 µM).

Compared with `COc1cc2c(cc1OC)CN(c1ccc(F)cc1[N+](=O)[O-])CC2`, `COc1ccc(S(=O)(=O)NCc2ccccn2)cc1OC` is 2.4-fold higher in solubility kinetic: 0.0178 mg/mL (≈ 53.6 µM) for the first, 0.043 mg/mL (≈ 139 µM) for the second.

First: CC(=O)Nc1ccc(SCc2csc(C)n2)cc1
Second: Cc1cc(SCC(=O)c2ccccc2)nc(=O)[nH]1
The solubility kinetic of the first is 2.1-fold higher: 0.0354 mg/mL (≈ 127 µM) for the first, 0.0167 mg/mL (≈ 64.2 µM) for the second.

Going from `O=C(NCc1ccccc1)C(=O)Nc1nc(-c2ccccc2)cs1` to `O=C(COC(=O)c1ccc2ccccc2c1O)Nc1ccccc1`, the solubility kinetic rises from under 0.0002 mg/mL to 0.0023 mg/mL (≈ 7.16 µM).

Going from `CCc1ccc(N2CCN(CCNC(=O)Nc3ccccc3)CC2)cc1` to `COc1ccc(CCNC2CCc3ccccc3C2)cc1` (stereo not given), the solubility kinetic rises from 0.0013 mg/mL (≈ 3.69 µM) to 0.0283 mg/mL (≈ 101 µM) (22-fold).

`CCCCn1c(N)c(N(CC)C(=O)c2ccccc2C)c(=O)[nH]c1=O` and `CCCCC1(C)NC(=O)N(CC(=O)Nc2ccc(Cl)cc2C)C1=O` (stereo not given) are within 1.5-fold of each other in solubility kinetic: 0.0495 mg/mL (≈ 144 µM) for the first, 0.0487 mg/mL (≈ 138 µM) for the second.

Going from `Cc1cccc(C(=O)OCC(=O)NC(C)CCc2ccccc2)c1O` (stereo not given) to `Cc1nc(C)c(C(=O)OCC(=O)NCc2ccccc2)s1`, the solubility kinetic rises from under 0.0007 mg/mL to over 0.0457 mg/mL.

First: OC1CCCN(CC(O)c2ccccc2)C1 (stereo not given)
Second: CCOC(=O)C1(Cc2ccccc2)CCCN(C2CCCC2)C1 (stereo not given)
The solubility kinetic of the first is lower: 0.025 mg/mL (≈ 113 µM) for the first, over 0.0473 mg/mL for the second.

`O=C(NN1CCOCC1)c1ccccc1F` and `O=C(CSc1ccccc1F)NCC(c1cccs1)N1CCOCC1` (stereo not given) cannot be ordered by solubility kinetic: over 0.0336 mg/mL for the first, over 0.0571 mg/mL for the second.

`COC(=O)C(Cc1ccc(O)cc1)NC(=O)CCNC(=O)c1ccco1` (stereo not given) and `CC(=O)N/C(=C\c1ccccc1)C(=O)OCc1ccccc1` cannot be ordered by solubility kinetic: over 0.0541 mg/mL for the first, over 0.0443 mg/mL for the second.

Compared with `CC(OC(=O)CCc1nc2ccccc2[nH]c1=O)c1ccccc1` (stereo not given), `Cc1cccc2cc(CN(Cc3ccco3)C(=O)c3ccco3)c(=O)[nH]c12` is 15-fold lower in solubility kinetic: 0.0119 mg/mL (≈ 36.9 µM) for the first, 0.0008 mg/mL (≈ 2.21 µM) for the second.

`CCCc1cc(=O)[nH]c(SCC(=O)Nc2cc(S(=O)(=O)N3CCOCC3)ccc2Cl)n1` and `CN(CC(=O)OCC(=O)NC1CCCC1)S(=O)(=O)c1ccc(Cl)cc1` cannot be ordered by solubility kinetic: 0.0638 mg/mL (≈ 131 µM) for the first, over 0.0583 mg/mL for the second.

Going from `Cc1ccc(C(=O)N2CCN(c3ccc(C(F)(F)F)cn3)CC2)o1` to `O=C(COc1cccc(C(F)(F)F)c1)NCC(c1ccco1)N1CCCC1` (stereo not given), the solubility kinetic rises from 0.0198 mg/mL (≈ 58.4 µM) to 0.0451 mg/mL (≈ 118 µM) (2.3-fold).

First: O=C(COC(=O)c1ccccc1)NCCC1=CCCCC1
Second: Nc1cc(Cl)ccc1C(=O)OCC(=O)NCC1CCCO1 (stereo not given)
The solubility kinetic of the first is lower: 0.0241 mg/mL (≈ 83.9 µM) for the first, over 0.0469 mg/mL for the second.

`N#Cc1c2c(c(NCCOCCO)n3c1nc1ccccc13)CCCC2` and `O=C1CN=C(c2ccccc2)c2c(sc3c2CCCC3)N1` are within 1.5-fold of each other in solubility kinetic: 0.027 mg/mL (≈ 77 µM) for the first, 0.0363 mg/mL (≈ 122 µM) for the second.

Compared with `CCCCCCCCNC(CO)(CO)CO`, `CN(C)CCCNC(NC(=O)/C=C/c1ccccc1)C(Cl)(Cl)Cl` (stereo not given) is 1.5-fold higher in solubility kinetic: 0.0295 mg/mL (≈ 126 µM) for the first, 0.0443 mg/mL (≈ 117 µM) for the second.

Going from `C=CCNC(=O)C1CC1(c1cccc(C)c1)c1cccc(C)c1` (stereo not given) to `Cc1cccc(NC(=O)CN(c2ccc(F)cc2)S(C)(=O)=O)c1`, the solubility kinetic rises from 0.0017 mg/mL (≈ 5.57 µM) to 0.0424 mg/mL (≈ 126 µM) (25-fold).

First: Cc1oc(C(N)=O)cc1COc1ccc(C(N)=O)cc1
Second: O=C1CSc2ccc(C(=O)NCCc3ccc(Cl)cc3Cl)cc2N1
The solubility kinetic of the first is 8.9-fold higher: 0.0329 mg/mL (≈ 120 µM) for the first, 0.0037 mg/mL (≈ 9.7 µM) for the second.

Going from `Cc1ccc(-c2nc(-c3ccncc3)no2)c(Cl)c1` to `COc1ccc(/C=C2/C(=O)ON=C2C)cc1Br`, the solubility kinetic rises from 0.0005 mg/mL (≈ 1.84 µM) to 0.014 mg/mL (≈ 47.3 µM) (28-fold).

First: CCC1(C)Cc2c(sc3[nH]c(=S)[nH]c(=S)c23)CO1 (stereo not given)
Second: Cc1ccc(/C=C/C(=O)O)cc1S(=O)(=O)N1CCC(Cc2ccccc2)CC1
The solubility kinetic of the first is 1.9-fold lower: 0.0277 mg/mL (≈ 92.8 µM) for the first, 0.0532 mg/mL (≈ 133 µM) for the second.
